Measurements published in patent US12551482B2, “Aurora kinase inhibitors” (The Regents of the University of California, priority 2013, dated 2026).
“Also recorded” adds a separate entry of the source.

Experiments:
[1] = target: T1, MYCN-Aurora A complex (Homo sapiens, UniProt O14965); assay: Pulldown of MYCN and immunoblot for Aurora A; assay type: cell-based; conditions: MYCN-amplified IMR32 cells, 4 hrs MG-132, 2 hrs drug, increasing concentrations
T1 construct: Representative immunoprecipitation of MYCN and immunoblots from MYCN-amplified IMR32 cells; endogenous in cells

[2] = test system: MKN28; assay: Cancer cell line profiling, Genomics of Drug Sensitivity Project; conditions: Homo sapiens, MKN-28, read-out: CD532 EC50 (uM)
[3] = test system: HSC-4; assay: as above; conditions: Homo sapiens, HSC-4, read-out: CD532 EC50 (uM)
[4] = test system: Hep 3B2.1-7; assay: as above; conditions: read-out: CD532 EC50 (uM)
[5] = test system: MYCN; assay: Dose response immunoblot for MYCN in MYCN-amplified neuroblastoma cell lines (SK-N-BE(2), SMS-KCN, Kelly); assay type: cell-based; conditions: multiple cell lines, 24 hrs (FIGS. 1D and 7)
Description: Neuroblastoma tumor cell lines were obtained from the University of California San Francisco Cell Culture Facility (Kelly, SK-N-BE2, and SH-EP). SMS-KCN, SHEP MYCN^wt and MYCN^T58A/S62A cells were obtained. All cells were grown in RPMI with 10% FBS. Neuroblastoma cells were harvested and lysed with Cell Signaling Lysis buffer+1% SDS, sonicated and supernatants boiled in LDS sample buffer (Invitrogen). Western blots were performed as described previously (Chanthery et al., 2012), with primary antibodies to MYCN (ab24193, Abcam), Histone H3, P-Histone H3 (S10), Aurora A (Cell signaling), and GAPDH (Millipore). Western blot quantitation performed with ImageJ software.

[6] = test system: CAL-62; assay: Cancer cell line profiling, Genomics of Drug Sensitivity Project; conditions: Homo sapiens, CAL-62, read-out: CD532 EC50 (uM)
[7] = test system: WM793B; assay: as above; conditions: read-out: CD532 EC50 (uM)
[8] = test system: Detroit 562; assay: as above; conditions: Homo sapiens, Detroit 562, read-out: CD532 EC50 (uM)
[9] = test system: NCI-H747; assay: as above; conditions: Homo sapiens, NCI-H747, read-out: CD532 EC50 (uM)
[10] = test system: OSC-20; assay: as above; conditions: read-out: CD532 EC50 (uM)
[11] = test system: COLO-829; assay: as above; conditions: Homo sapiens, COLO-829, read-out: CD532 EC50 (uM)
[12] = test system: RPMI 2650; assay: as above; conditions: Homo sapiens, RPMI-2650, read-out: CD532 EC50 (uM)
[13] = test system: BB30-HNC; assay: as above; conditions: read-out: CD532 EC50 (uM)
[14] = test system: EFO-21; assay: as above; conditions: Homo sapiens, EFO-21, read-out: CD532 EC50 (uM)
[15] = test system: RVH-421; assay: as above; conditions: Homo sapiens, RVH-421, read-out: CD532 EC50 (uM)
[16] = test system: ML-1; assay: as above; conditions: ML1, read-out: CD532 EC50 (uM)
[17] = test system: A101D; assay: as above; conditions: Homo sapiens, read-out: CD532 EC50 (uM)
[18] = test system: huH-1; assay: as above; conditions: Homo sapiens, HuH-1, read-out: CD532 EC50 (uM)
[19] = test system: SNU-1; assay: as above; conditions: Homo sapiens, SNU1, read-out: CD532 EC50 (uM)
[20] = test system: NBsusSR; assay: as above; conditions: read-out: CD532 EC50 (uM)
[21] = test system: RF-48; assay: as above; conditions: RF48, read-out: CD532 EC50 (uM)
[22] = test system: B-CPAP; assay: as above; conditions: Homo sapiens, BCPAP, read-out: CD532 EC50 (uM)
[23] = test system: AsPC-1; assay: as above; conditions: Homo sapiens, ASPC1, read-out: CD532 EC50 (uM)
[24] = test system: SAT; assay: as above; conditions: read-out: CD532 EC50 (uM)

T1 sequence (O14965 whole entry, one chain of several): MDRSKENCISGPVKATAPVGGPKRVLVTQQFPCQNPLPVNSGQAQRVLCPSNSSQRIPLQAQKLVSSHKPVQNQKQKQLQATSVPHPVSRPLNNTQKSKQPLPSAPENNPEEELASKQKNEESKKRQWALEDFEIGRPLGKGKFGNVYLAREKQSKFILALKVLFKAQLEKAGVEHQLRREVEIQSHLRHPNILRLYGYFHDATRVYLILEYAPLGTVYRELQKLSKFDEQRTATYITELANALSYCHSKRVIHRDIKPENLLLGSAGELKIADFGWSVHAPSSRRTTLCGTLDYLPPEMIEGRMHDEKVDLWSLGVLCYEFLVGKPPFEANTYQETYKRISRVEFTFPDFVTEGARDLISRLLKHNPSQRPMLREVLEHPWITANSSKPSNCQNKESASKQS

O=C(Nc1ccc(Nc2nccc(Nc3cc(C4CCCC4)[nH]n3)n2)cc1)Nc1cccc(C(F)(F)F)c1 [CD532, 1-(4-((4-((5-cyclopentyl-1H-pyrazol-3-yl)amino)pyrimidin-2-yl)amino)phenyl)-3-(3-(trifluoromethyl)phenyl)urea]
MYCN-Aurora A interaction [1]: complete and dose-dependent loss of Aurora A/MYCN interaction; also recorded: dose-dependent and complete dissociation of the MYCN-Aurora A complex
EC50 [2]: 10.1 µM
EC50 [3]: 0.885 µM
EC50 [4]: 0.877 µM
MYCN protein, dose response [5]: dose dependent loss of MYCN protein
EC50 [6]: 0.589 µM
EC50 [7]: 0.705 µM
EC50 [8]: 1.25 µM
EC50 [9]: 0.665 µM
EC50 [10]: 1.23 µM
EC50 [11]: 0.796 µM
EC50 [12]: 0.412 µM
EC50 [13]: 0.462 µM
EC50 [14]: 1.87 µM
EC50 [15]: 0.585 µM
EC50 [16]: 1.32 µM
EC50 [17]: 0.429 µM
EC50 [18]: 1.38 µM
EC50 [19]: 0.158 µM
EC50 [20]: 0.382 µM
EC50 [21]: 0.903 µM
EC50 [22]: 0.739 µM
EC50 [23]: 5.41 µM
EC50 [24]: 1.19 µM
